pEC50, pIC50: −log10 of the molar value. Like-named read-outs stand apart in the source and are kept apart here.
Assays:
[1] = target: T1, HsAurora B (Homo sapiens, UniProt Q96GD4); experiment: Aurora B kinase assay; format: biochemical
T1 construct: purchased SignalChem
Description: (§1) Values are IC50 expressed in µM and calculated from dose–response curves (each point on the curves was performed in triplicate). Selectivity indexes (SI; in brackets) are calculated as follows: SI = IC50 kinase X/IC50 Haspin. ND: not determined. *IC50 values obtained using the ADP-Glo methodology (see Experimental section, Supplementary Material). […]
Recombinant protein kinases were expressed and purified from E. coli (HsHaspin kinase domain aa470-798, HsCdk5/p25, RnDYRK1A kinase domain aa1-499, HsPIM1, MmCLK1) or baculovirus/Sf9 cells (HsCdk2/Cyclin A, HsCdk9/Cyclin T). Native SscCK1δ /ε and SscGSK3α/β were purified from pig brain whereas HsPlk1, HsCdk1 and HsAurora B were purchased from ProQinase and SignalChem respectively. Kinase assays were performed in specific buffers and substrates for each kinase tested in the presence of 15 µM [γ-33P] ATP (3,000 Ci/mmol, 10 mCi/ml; PerkinElmer) in a final volume of 30 µl as previously reported 51. After 30 min incubation at 30°C, the reaction mix was spotted onto GE healthcare P81 phosphocellulose paper using a FilterMate Harvester (PerkinElmer), and the filter was extensively washed with a 1% phosphoric acid solution. The wet filter-bound radioactivity was determined in the presence of 20 µl scintillation fluid (GE healthcare) with a TopCount® Scintillation and Luminescence Counter (PerkinElmer). IC50 values were calculated from dose-response curves […]
(§2) Kinase activities using the ADP-Glo methodology (ADP-Glo Kinase Assay; Promega) were assayed according to the assay described in Nguyen et al. 52 and Ibrahim et al. 53. […]

[2] = target: T2, HsHaspin (Homo sapiens, UniProt Q8TF76); experiment: Recombinant Haspin kinase assay ([γ-33P]ATP, 15 µM ATP; some values ADP-Glo); format: biochemical; conditions: for Haspin inhibitory activity (in words) / pIC50: recombinant HsHaspin; for pIC50: in vitro
T2 construct: aa470-798; made in house; host or cells: E. coli
T2 sequence (Q8TF76 470-798): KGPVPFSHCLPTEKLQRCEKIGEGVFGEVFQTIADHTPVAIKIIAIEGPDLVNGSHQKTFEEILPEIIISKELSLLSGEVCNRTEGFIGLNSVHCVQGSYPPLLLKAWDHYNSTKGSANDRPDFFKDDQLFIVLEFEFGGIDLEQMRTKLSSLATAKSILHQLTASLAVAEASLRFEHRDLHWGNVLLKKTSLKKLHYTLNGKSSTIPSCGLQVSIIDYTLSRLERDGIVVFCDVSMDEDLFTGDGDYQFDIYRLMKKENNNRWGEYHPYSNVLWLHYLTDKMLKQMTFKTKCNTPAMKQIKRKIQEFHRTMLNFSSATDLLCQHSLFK
Description: as §1
(§3) A, HsCdk9/Cyclin T). Native SscCK1δ /ε and SscGSK3α/β were purified from pig brain whereas HsPlk1, HsCdk1 and HsAurora B were purchased from ProQinase and SignalChem respectively. Kinase assays were performed in […]
(§4) mCi/ml; PerkinElmer) in a final volume of 30 µl as previously reported 51. After 30 min incubation at 30°C, the reaction mix was spotted onto GE healthcare P81 phosphocellulose paper using a FilterMate Harvester (PerkinElmer), and the filter was extensively washed with a 1% phosphoric acid solution. The wet filter-bound radioactivity was determined in the presence of 20 µl scintillation fluid (GE healthcare) with a TopCount® Scintillation and Luminescence Counter (PerkinElmer). IC50 values were calculated from dose-response curves […]
as §2

[3] = test system: Haspin; design: method as in PMID 23071153, PMID 23071152, PMID 21804608, PMID 19734450, PMID 18978305; conditions: Figure 1, known Haspin inhibitors; cited from earlier work
[4] = test system: HBL100; experiment: Cell viability, monolayer (2D), MTS assay; format: cell-based; conditions: Homo sapiens, HBL-100, 48 h
[5] = test system: U-2 OS spheroids; experiment: Spheroid (3D) viability, CellTiter-Glo; format: cell-based, human; conditions: 5 µM; for viability at 5 µM: Homo sapiens, U2OS
[6] = target: T3, HsCdk2/Cyclin A (Homo sapiens, UniProt P24941); experiment: CDK2 kinase assay; format: biochemical; conditions: read-out: IC50 CDK2
T3 construct: made in house; host or cells: baculovirus/Sf9 cells
Description: as §1, §3, §4, §2

[7] = test system: U-2 OS; experiment: Cell viability, monolayer (2D), MTS assay; format: cell-based; conditions: Homo sapiens, U2OS, 48 h
[8] = target: T4, HsPLK1 (Homo sapiens, UniProt P53350); experiment: PLK1 kinase assay; format: biochemical; conditions: Table 4
T4 construct: purchased ProQinase
Description: . We therefore tested our compounds on two obvious candidates, HsCDK1 and HsPLK1 (Polo-like_kinase 1) both required for mitotic entry[50] (Table 4).
(§5) Values are IC50 expressed in µM and calculated from dose–response curves (each point from the curves was performed in duplicate). NR: not relevant. […]
(§6) Recombinant protein kinases were expressed and purified from E. coli (HsHaspin kinase domain aa470-798, HsCdk5/p25, RnDYRK1A kinase domain aa1-499, HsPIM1, MmCLK1) or baculovirus/Sf9 cells (HsCdk2/Cyclin A, HsCdk9/Cyclin T). Native SscCK1δ /ε and SscGSK3α/β were purified from pig brain whereas HsPlk1, HsCdk1 and HsAurora B were purchased from ProQinase and SignalChem respectively. Kinase assays were performed in specific buffers and substrates for each kinase tested in the presence of 15 µM [γ-33P] ATP (3,000 Ci/mmol, 10 mCi/ml; PerkinElmer) in a final volume of 30 µl as previously reported 51. After 30 min incubation at 30°C, the reaction mix was spotted onto GE healthcare P81 phosphocellulose paper using a FilterMate Harvester (PerkinElmer), and the filter was extensively washed with a 1% phosphoric acid solution. The wet filter-bound radioactivity was determined in the presence of 20 µl scintillation fluid (GE healthcare) with a TopCount® Scintillation and Luminescence Counter (PerkinElmer). IC50 values were calculated from dose-response curves

[9] = test system: Haspin activity (H3T3ph) in U-2 OS cells; experiment: In-cell Haspin activity, H3T3ph immunofluorescence; format: cell-based, human; conditions: 24 h; for H3T3ph signal remaining in prometaphase cells (% of ctrl): 0.5 µM
[10] = test system: U-2 OS cells; experiment: Scratch wound cell migration assay (IncuCyte); format: cell-based, human; conditions: 0.6 µM, 0.5% FBS, normalised against DMSO control (100%)
[11] = test system: HCT116; experiment: Cell viability, monolayer (2D), MTS assay; format: cell-based; conditions: Homo sapiens, HCT-116, 48 h
[12] = target: T5, HsCDK1 (Homo sapiens, UniProt P06493); experiment: CDK1 kinase assay; format: biochemical; conditions: for SI CDK1/Haspin: SI = IC50 CDK1/IC50 Haspin; for pIC50: Table 4, read-out: IC50 HsCDK1
T5 construct: purchased ProQinase
Description: We therefore tested our compounds on two obvious candidates, HsCDK1 and HsPLK1 (Polo-like_kinase 1) both required for mitotic entry[50]
as §5, §6

[13] = test system: RPE-1; experiment: Cell viability, monolayer (2D), MTS assay; format: cell-based; conditions: Homo sapiens, 48 h
[14] = test system: SH-SY5Y; experiment: Cell viability, monolayer (2D), MTS assay; format: cell-based; conditions: Homo sapiens, 48 h
[15] = test system: HBL100 spheroids; experiment: Spheroid (3D) viability, CellTiter-Glo; format: cell-based, human; conditions: Figure 4(A)
[16] = test system: U-2 OS cells; experiment: Cell cycle analysis by flow cytometry (propidium iodide); conditions: 2.5 µM, 24 h, U-2 OS
Description: Figure 6. […] DNA content was measured by flow cytometry and representative profiles are shown. (B) quantification of the proportion of cells in each phase of the cell cycle from the experiment described in (A). Results are mean percentage (n = 3 independent experiments).
Cellular evaluation methods
All media were supplemented with 10% fetal calf serum (unless overwise specified) and 2 mM L-glutamine and cells were cultured
F68-pluronic acid. Cells were fixed for 2h in ice-cold ethanol, then washed twice in PBS containing 0.1% F68-pluronic acid, centrifuged at 200 g and resuspended in a PBS buffer containing 1% Triton, 100 µg/ml RNase A (Thermo Scientific) and 40 µg/ml propidium iodide (Life Technologies). DNA content was determined using a FACS Canto II (BD) and the data were analyzed using FCS Express Cytometry software (De Novo Software).
Twenty thousand events were collected in each run.

[17] = test system: HCT116 spheroids; experiment: Spheroid (3D) viability, CellTiter-Glo; format: cell-based, human; conditions: 5 µM, 10 days, Figure 4(A)

T4 sequence (P53350 whole entry): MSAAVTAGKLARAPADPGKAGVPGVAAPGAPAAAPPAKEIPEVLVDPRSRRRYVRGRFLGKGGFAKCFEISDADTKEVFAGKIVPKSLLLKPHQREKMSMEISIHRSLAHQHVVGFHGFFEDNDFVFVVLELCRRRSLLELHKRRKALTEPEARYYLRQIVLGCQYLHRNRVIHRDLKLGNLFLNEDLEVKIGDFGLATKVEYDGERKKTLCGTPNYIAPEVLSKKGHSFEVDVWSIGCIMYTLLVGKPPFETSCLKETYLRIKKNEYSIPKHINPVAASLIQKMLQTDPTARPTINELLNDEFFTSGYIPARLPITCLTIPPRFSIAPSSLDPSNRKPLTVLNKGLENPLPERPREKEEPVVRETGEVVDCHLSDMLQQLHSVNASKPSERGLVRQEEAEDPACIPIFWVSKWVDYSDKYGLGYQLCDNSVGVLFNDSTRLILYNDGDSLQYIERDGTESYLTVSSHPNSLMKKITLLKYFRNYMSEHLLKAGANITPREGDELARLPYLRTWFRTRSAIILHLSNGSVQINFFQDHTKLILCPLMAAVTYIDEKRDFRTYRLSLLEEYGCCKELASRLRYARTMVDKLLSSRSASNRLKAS
T1 sequence (Q96GD4 whole entry): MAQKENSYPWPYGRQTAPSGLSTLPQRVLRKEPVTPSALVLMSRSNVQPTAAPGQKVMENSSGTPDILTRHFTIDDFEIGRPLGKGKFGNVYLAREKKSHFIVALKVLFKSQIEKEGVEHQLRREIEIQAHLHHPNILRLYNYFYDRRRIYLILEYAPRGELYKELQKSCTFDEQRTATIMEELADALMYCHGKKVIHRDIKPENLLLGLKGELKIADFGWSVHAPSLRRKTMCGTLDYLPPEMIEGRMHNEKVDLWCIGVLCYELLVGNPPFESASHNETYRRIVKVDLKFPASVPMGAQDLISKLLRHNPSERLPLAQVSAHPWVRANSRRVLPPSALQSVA
T5 sequence (P06493 whole entry): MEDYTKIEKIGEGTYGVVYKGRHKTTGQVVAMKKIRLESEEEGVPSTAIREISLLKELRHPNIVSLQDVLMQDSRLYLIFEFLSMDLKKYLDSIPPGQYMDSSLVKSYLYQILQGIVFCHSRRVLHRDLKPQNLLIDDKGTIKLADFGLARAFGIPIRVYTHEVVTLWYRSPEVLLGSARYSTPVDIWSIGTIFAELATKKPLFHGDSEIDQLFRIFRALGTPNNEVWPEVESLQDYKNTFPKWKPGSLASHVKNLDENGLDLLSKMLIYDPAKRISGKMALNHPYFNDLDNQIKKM
T5 sequence (P14635 whole entry partner): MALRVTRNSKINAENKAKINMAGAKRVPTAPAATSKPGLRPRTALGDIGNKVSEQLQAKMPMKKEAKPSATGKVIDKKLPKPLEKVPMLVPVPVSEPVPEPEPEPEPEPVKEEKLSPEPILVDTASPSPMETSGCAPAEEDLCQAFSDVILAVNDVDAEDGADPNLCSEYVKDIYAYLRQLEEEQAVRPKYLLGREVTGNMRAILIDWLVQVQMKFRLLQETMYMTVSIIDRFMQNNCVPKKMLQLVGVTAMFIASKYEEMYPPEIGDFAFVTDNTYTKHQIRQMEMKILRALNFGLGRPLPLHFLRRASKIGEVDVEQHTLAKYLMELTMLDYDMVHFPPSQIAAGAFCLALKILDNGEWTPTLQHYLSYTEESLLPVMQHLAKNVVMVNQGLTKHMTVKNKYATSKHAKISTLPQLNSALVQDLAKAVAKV

Structure (SMILES): c1cnn2c(-c3ccc4[nH]ncc4c3)cnc2c1 [Compound 30, 3-(1H-Indazol-5-yl)imidazo[1,2-b]pyridazine]
- Aurora B inhibition at 10 µM (in words) [1]: did not affect this enzyme at 10 µM
- Haspin inhibitory activity (in words) [2]: lost their activity for Haspin

Structure (SMILES): COc1ccc2c3ccnc(C(F)(F)F)c3n(CCCCN)c2c1 [LDN-211898]
- pIC50 [3]: 7.00

Structure (SMILES): c1cc2[nH]ncc2cc1-c1cnc2ccc(OC[C@H]3CNCCO3)nn12 [Compound 22]
- pEC50 [4]: < 5.00
- U-2 OS spheroid remaining viability ([5]; 2 days, Figure 4(B)): no effects
- pIC50 [6]: 5.28
- pIC50 [2]: 7.92
- pEC50 [7]: 5.07
- pIC50 [8]: < 5.00
- H3T3ph signal remaining in prometaphase cells (% of ctrl) [9]: 10.7%
- inhibition at 0.05 µM ([9]; Homo sapiens, U2OS, 0.05 µM, read-out: inhibition of cellular Haspin activity): > 80%
- normalised wound closure after 24 h [10]: around 100%
- pEC50 [11]: < 5.00
- SI CDK1/Haspin [12]: 239
- pIC50 [12]: 5.54
- pEC50 [13]: 5.22
- pEC50 [14]: < 5.00

Structure (SMILES): c1cc2[nH]ncc2cc1-c1cnc2ccc(OCC3CCCN3)nn12 (stereo not shown) [Compound 26]
- Haspin inhibitory activity (in words) [2]: very active

Structure (SMILES): c1cc2[nH]ncc2cc1-c1cnc2ccc(NC3CCCCC3)nn12 [Compound 10]
- melting point: 240 to 242 °C

Structure (SMILES): CN1CCC(CNc2ccc3ncc(-c4cccc(OC(F)(F)F)c4)n3n2)CC1 [SGI-1776]
- pIC50 [3]: 7.47

Structure (SMILES): c1cc2[nH]ncc2cc1-c1cnc2ccc(NC3CCCC3)nn12 [Compound 9]
- pIC50 [2]: 7.51
- melting point: 195 to 197 °C

Structure (SMILES): COc1ccc2c(c1)[nH]c1c(C)nccc12 [Harmine]
- pIC50 [3]: 6.23

Structure (SMILES): CCCNc1ccc2ncc(-c3cccc4ccccc34)n2n1 [Compound 29, 3-(Naphthalen-1-yl)-N-propylimidazo[1,2-b]pyridazin-6-amine]
- pEC50 [4]: < 5.00
- pEC50 [7]: < 5.00
- pIC50 [8]: < 5.00
- normalised wound closure after 24 h [10]: around 100%
- pEC50 [11]: < 5.00
- pIC50 [12]: < 5.00
- pEC50 [13]: < 5.00
- pEC50 [14]: < 5.00

Structure (SMILES): c1cc2[nH]ncc2cc1-c1cnc2ccc(N3CCCCC3)nn12 [Compound 11]
- melting point: 231 to 233 °C

Structure (SMILES): CCCOc1ccc2ncc(-c3ccc4[nH]ncc4c3)n2n1 [Compound 13]
- melting point: 198 to 200 °C

Structure (SMILES): c1cc2[nH]ncc2cc1-c1cnc2ccc(OC[C@@H]3COCCN3)nn12 [Compound 23]
- pIC50 [2]: 7.60

Structure (SMILES): c1cc2[nH]ncc2cc1-c1cnc2ccc(OCC3CCCN3)nn12 (stereo not shown) [Compound 25]
- Haspin inhibitory activity (in words) [2]: very active

Structure (SMILES): CCOc1ccc2ncc(-c3ccc4[nH]ncc4c3)n2n1 [Compound 14]
- HBL100 spheroid viability ([15]; 5 µM, 10 days): remained mostly unresponsive
- viability at 5 µM ([15]; Homo sapiens, HBL-100, 48 h, read-out: HBL-100 spheroid viability (% of DMSO control)): 73%
- Aurora B inhibition (in words) [1]: did not inhibit Aurora B kinase
- pEC50 [4]: 5.02
- viability at 5 µM ([5]; 48 h, 2 days, Figure 4(B), read-out: U-2 OS spheroid remaining viability): 6.9%
- viability at 5 µM ([5]; 240 h, 10 days, Figure 4(A), read-out: U-2 OS spheroid viability (% of DMSO control)): 5%
- viability at 5 µM ([5]; 48 h, Figure 4(A), read-out: U-2 OS spheroid viability (% of DMSO control)): 33%
- cells in G2/M phase (% of cell total population) ([16]; DMSO control 12.8%): 24.4%
- cells in S phase (% of cell total population) ([16]; DMSO control 51.9%): 45.2%
- average SI ([2]; average selectivity index over the protein kinases tested vs Haspin): 23.6
- pIC50 [2]: 7.16
- pEC50 [7]: 5.55
- pIC50 [8]: < 5.00
- H3T3ph signal remaining in prometaphase cells (% of ctrl) [9]: 11.9%
- normalised wound closure after 24 h [10]: 73%
- pEC50 [11]: 5.77
- SI CDK1/Haspin [12]: 11.5
- pIC50 [12]: 6.10
- pEC50 [13]: 5.43
- pEC50 [14]: < 5.00
- melting point: 205 to 207 °C
- HCT116 spheroid viability [17]: remained mostly unresponsive

Structure (SMILES): CCCNc1ccc2ncc(-c3cnc(N)nc3)n2n1 [Compound 28, 3-(2-Aminopyrimidin-5-yl)-6-(propylamino)imidazo[1,2-b]pyridazine]
- Aurora B inhibition at 10 µM (in words) [1]: did not affect this enzyme at 10 µM

Structure (SMILES): c1cc2[nH]ncc2cc1-c1cnc2ccc(OC[C@H]3COCCN3)nn12 [Compound 24]
- pIC50 [2]: 7.70

— PMC7580722, “Design of new disubstituted imidazo[1,2-b]pyridazine derivatives as selective Haspin inhibitors. Synthesis, binding mode and anticancer biological evaluation” (Journal of Enzyme Inhibition and Medicinal Chemistry, 2020)
